Experimental data: patent US6727264B1 (Synaptic Pharmaceutical Corporation, priority 2001, dated 2004)
pKi: −log10 of the molar value.

Target: rat MCH-1 (Rattus norvegicus, UniProt P97639)
Test: Radioligand binding assay at cloned rat MCH1 receptor ([3H] Compound A)
Set-up: host or cells: Peak rapid 293 (Peakr293) cells, transient calcium phosphate transfection, membranes
Conditions: not given

Chain of rat MCH-1 (P97639 whole entry): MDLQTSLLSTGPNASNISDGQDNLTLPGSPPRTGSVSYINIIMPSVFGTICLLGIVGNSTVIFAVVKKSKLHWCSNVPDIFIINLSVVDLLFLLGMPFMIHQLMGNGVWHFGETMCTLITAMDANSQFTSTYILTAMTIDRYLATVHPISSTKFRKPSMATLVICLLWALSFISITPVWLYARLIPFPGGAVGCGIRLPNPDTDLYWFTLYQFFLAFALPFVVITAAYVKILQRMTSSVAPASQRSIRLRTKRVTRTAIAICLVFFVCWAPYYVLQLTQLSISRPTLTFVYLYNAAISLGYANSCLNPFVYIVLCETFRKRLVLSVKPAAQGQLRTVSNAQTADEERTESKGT

Row | SMILES | pKi
1 | CC(C)C(=O)Nc1cccc(C2CCN(Cc3cccc4[nH]ccc34)CC2)c1 [Example 830] | 6.33

Same assay, conditions: cloned rat MCH1 receptor, membranes from Peakr293 cells, 0.08 nM [3H] Compound A; read-out: Ki (nM) rMCH1

Row | SMILES | Ki
2 | CC(C)C(=O)Nc1cccc(C2CCN(CCCOc3ccccc3F)CC2)c1 [Example 343] | 195 nM
3 | CCn1c2ccccc2c2cc(CN3CCC(c4ccc(NC(=O)C(C)C)cc4)CC3)ccc21 [Example 98] | 37.9 nM
4 | CC(C)C(=O)Nc1cccc(C2CCN(CCc3c(-c4ccccc4)n(C)c4ccccc34)CC2)c1 [Example 386] | 26.3 nM
5 | CC(C)C(=O)Nc1cccc(C2CCN(CCC(Oc3ccc(-c4ccccc4)cc3)c3ccc(Br)cc3)CC2)c1 (centres unmarked) [Example 145] | 197 nM
6 | CC(C)CCOc1ccc(CN2CCC(c3cccc(NC(=O)C(C)C)c3)CC2)c2ccccc12 [Example 195] | 106 nM
7 | CC(=O)c1ccccc1OC(CCN1CCC(c2cccc(NC(=O)C(C)C)c2)CC1)c1ccc2c(c1)CCC2 (centres unmarked) [Example 157, N-(3-{1-[3-(2- ACETYLPHENOXY)-3-(2,3-DIHYDRO-1H-INDEN-5-YL)PROPYL]-4-PIPERIDINYL}PHENYL)-2-METHYLPROPANAMIDE] | 15.4 nM
8 | CC(C)C(=O)Nc1cccc(C2CCN(Cc3ccc(-c4cc(C(F)(F)F)nn4C)s3)CC2)c1 [Example 226] | 239 nM
9 | COc1ccc(OC(CCN2CCC(c3cccc(NC(=O)C(C)C)c3)CC2)c2ccc(Cl)cc2)cc1 (centres unmarked) [Example 130] | 6 nM
10 | Cc1onc(-c2c(Cl)cccc2Cl)c1C(=O)OC(CCCN1CCC(c2cccc(NC(=O)C(C)C)c2)CC1)c1ccccc1 (centres unmarked) [Example 284, 4-{4-[3-(ISOBUTYRYLAMINO)PHENYL]-1-PIPERIDINYL}-1-PHENYLBUTYL 3-(2,6-DICHLOROPHENYL)-5-METHYL-4-ISOXAZOLECARBOXYLATE] | 16.3 nM
11 | CC(C)C(=O)Nc1cccc(C2CCN(CC[C@H](NC(=O)c3cccc(Cl)c3)c3ccccc3)CC2)c1 [Example 305] | 177 nM
12 | CC(C)C(=O)Nc1cccc(C2CCN(CCCOc3ccc(Cl)cc3)CC2)c1 [Example 345] | 15.4 nM
13 | CC(C)C(=O)Nc1cccc(C2CCN(CCCCc3c(-c4ccccc4)n(-c4ccccc4)c4ccccc34)CC2)c1 [Example 392] | 18.1 nM
14 | COc1cccc(OC(CCN2CCC(c3cccc(NC(=O)C(C)C)c3)CC2)c2ccc(Br)cc2)c1 (centres unmarked) [Example 147] | 8.7 nM
15 | CC(C)C(=O)Nc1cccc(C2CCN(Cc3ccc(-c4ccc(C(F)(F)F)cc4Cl)o3)CC2)c1 [Example 220] | 159 nM
16 | COc1ccc(C(=O)CCN2CCC(c3cccc(NC(=O)C(C)C)c3)CC2)cc1 [Example 119] | 75.7 nM
17 | Cc1nn(-c2ccccc2)c(Cl)c1CN1CCC(c2cccc(NC(=O)C(C)C)c2)CC1 [Example 202] | 155 nM
18 | CC(C)C(=O)Nc1cccc(C2CCN(Cc3cn(S(=O)(=O)c4ccccc4)c4ccccc34)CC2)c1 [Example 227] | 262 nM
19 | CC(C)C(=O)Nc1cccc(C2CCN(C[C@@H](Oc3cccc(Cl)c3)c3ccccc3)CC2)c1 [Example 335] | 888 nM
20 | CC(C)C(=O)Nc1cccc(C2CCN(Cc3c(OCc4ccc(C#N)cc4)ccc4ccccc34)CC2)c1 [Example 190] | 436 nM
21 | CC(C)C(=O)Nc1cccc(C2CCN(CC[C@H](NC(=O)C(c3ccccc3)c3ccccc3)c3ccccc3)CC2)c1 [Example 304] | 4 nM
22 | CC(C)C(=O)Nc1cccc(C2CCN(Cc3cccc(N(C)C)c3)CC2)c1 [Example 211] | 111 nM
23 | CC(C)C(=O)Nc1cccc(C2CCN(Cc3ccc(-c4cccs4)s3)CC2)c1 [Example 236] | 97.7 nM
24 | CC(C)C(=O)Nc1cccc(C2CCN(CCC(Oc3ccc(F)cc3)c3ccc(F)cc3)CC2)c1 (centres unmarked) [Example 139] | 38.7 nM
25 | CCCCOc1ccc2ccccc2c1CN1CCC(c2cccc(NC(=O)C(C)C)c2)CC1 [Example 189] | 438 nM
26 | Cc1ccc(OCCCN2CCC(c3cccc(NC(=O)C(C)C)c3)CC2)cc1C [Example 349] | 20.4 nM
27 | CC(C)C(=O)Nc1cccc(C2CCN(C[C@H](C)COc3cccc(Cl)c3)CC2)c1 [Example 358] | 136 nM

Same assay, conditions: cloned rat MCH1 receptor; 0.08 nM [3H] Compound A; Peakr293 cell membranes; read-out: Ki (nM) rMCH1

Row | SMILES | Ki
28 | CC(C)C(=O)Nc1cccc(C2CCN(Cc3cccc4c3ccn4-c3ccc(Cl)cc3)CC2)c1 [Example 872] | 306 nM
29 | CC(C)C(=O)Nc1cccc(C2CCN(CCCCC(=O)c3ccccc3F)CC2)c1 [Example 671] | 88.6 nM
30 | Cc1ccc2[nH]c(-c3ccc(I)cc3)c(CCCN3CCC(c4cccc(NC(=O)C(C)C)c4)CC3)c2c1 [Example 745] | 15.8 nM
31 | O=C(CCCCN1CCC(c2cccc(NC(=O)C3CC3)c2)CC1)c1ccccc1C(F)(F)F [Example 560] | 55.7 nM
32 | CCC(=O)Nc1cccc(C2CCN(CCCSc3ccccc3)CC2)c1 [Example 579] | 131 nM
33 | CSc1ccccc1NC(=O)NCCCN1CCC(c2cccc(NC(=O)C(C)C)c2)CC1 [Example 619] | 178 nM
34 | COc1ccc2[nH]c(-c3ccccc3)c(CN3CCC(c4cccc(NC(=O)C(C)C)c4)CC3)c2c1 [Example 444] | 545 nM
35 | CC(C)C(=O)Nc1cccc(C2CCN(CCCCCCNC(=O)Nc3ccccc3)CC2)c1 [Example 631] | 259 nM
36 | CC(C)C(=O)Nc1cccc(C2CCN(CCCCCC(Oc3ccccc3F)c3ccccc3F)CC2)c1 (centres unmarked) [Example 889] | 8.6 nM
37 | COc1cccc2c(CN3CCC(c4cccc(NC(=O)C(C)C)c4)CC3)c[nH]c12 [Example 510] | 305 nM
38 | CC(C)C(=O)Nc1cccc(C2CCN(CCCCC(=O)c3ccc(I)cc3)CC2)c1 [Example 676] | 21.9 nM
39 | Cc1noc(C)c1S(=O)(=O)N[C@@H](CCN1CCC(c2cccc(NC(=O)C(C)C)c2)CC1)c1ccccc1 [Example 602] | 44.6 nM
40 | Cc1ccc(C(=O)CCCN2CCC(c3cccc(NC(=O)C4CC4)c3)CC2)cc1C [Example 546] | 87.9 nM
41 | CC(C)C(=O)Nc1cccc(C2CCN(CCCCC(=O)c3ccc(F)cc3)CC2)c1 [Example 662] | 50.3 nM
42 | Cc1ccc2[nH]c(-c3cccc([N+](=O)[O-])c3)c(CCCN3CCC(c4cccc(NC(=O)C(C)C)c4)CC3)c2c1 [Example 769] | 12.4 nM
43 | CC(C)C(=O)Nc1cccc(C2CCN(CCCc3c(-c4cccc([N+](=O)[O-])c4)[nH]c4ccccc34)CC2)c1 [Example 766] | 7.6 nM
44 | COc1ccc2[nH]c(-c3ccccc3F)c(CCCN3CCC(c4cccc(NC(=O)C(C)C)c4)CC3)c2c1 [Example 712] | 8.6 nM
45 | CC(C)C(=O)Nc1cccc(C2CCN(Cc3cn(-c4ccccc4)c4c(Cl)cccc34)CC2)c1 [Example 512] | 42.7 nM
46 | Cc1ccc2[nH]c(-c3ccccc3)c(CN3CCC(c4cccc(NC(=O)C(C)C)c4)CC3)c2c1 [Example 437] | 552 nM
47 | CC(C)C(=O)Nc1cccc(C2CCN(CCCc3c(-c4cccc(F)c4)n(C)c4ccccc34)CC2)c1 [Example 705] | 8.5 nM
48 | CC(C)C(=O)Nc1cccc(C2CCN(CCCCCC(O)c3cccc(F)c3)CC2)c1 (centres unmarked) [Example 813] | 57.3 nM
49 | Cc1onc(-c2ccccc2)c1C(=O)NCCCN1CCC(c2cccc(NC(=O)C(C)C)c2)CC1 [Example 638] | 29.8 nM

Row | SMILES | Ki
50 | CC(C)C(=O)Nc1cccc(C2CCN(Cc3c[nH]c4ccc(F)cc34)CC2)c1 [Example 454] | 772 nM
51 | COc1ccc(C(=O)CCCN2CCC(c3cccc(NC(=O)C(C)C)c3)CC2)cc1 [Example 944] | 38.8 nM
52 | CC(C)C(=O)Nc1cccc(C2CCN(CCc3cccc4ccccc34)CC2)c1 [Example 801] | 311 nM
53 | CC(C)C(=O)Nc1cccc(C2CCN(CCCc3c(-c4cccc(Cl)c4)n(C)c4ccccc34)CC2)c1 [Example 724] | 5 nM
54 | Cc1ccc2[nH]c(-c3cccc(Br)c3)c(CCCN3CCC(c4cccc(NC(=O)C(C)C)c4)CC3)c2c1 [Example 763] | 1.9 nM
55 | Cc1ccc2[nH]c(-c3ccc(Br)cc3)c(CCCN3CCC(c4cccc(NC(=O)C(C)C)c4)CC3)c2c1 [Example 764] | 14.6 nM
56 | O=C(Nc1cccc(C2CCN(Cc3c[nH]c4c([N+](=O)[O-])cccc34)CC2)c1)C1CC1 [Example 514] | 151 nM
57 | CCC(=O)Nc1cccc(C2CCN(CCCCC(=O)c3ccc(Cl)cc3)CC2)c1 [Example 561] | 92.9 nM
58 | CC(C)C(=O)Nc1cccc(C2CCN(CCCc3c(-c4ccccc4I)[nH]c4ccc(OC(F)(F)F)cc34)CC2)c1 [Example 786] | 19.7 nM
59 | CC(C)C(=O)Nc1cccc(C2CCN(CCCc3c(-c4cccc(F)c4)[nH]c4ccc(OC(F)(F)F)cc34)CC2)c1 [Example 694] | 6.4 nM
60 | CC(C)C(=O)Nc1cccc(C2CCN(CCCc3c(-c4ccc(Cl)cc4)[nH]c4ccccc34)CC2)c1 [Example 708] | 3.8 nM
61 | CC(C)C(=O)Nc1cccc(C2CCN(Cc3c[nH]c4cc(C(F)(F)F)ccc34)CC2)c1 [Example 499] | 11.9 nM
62 | CC(C)C(=O)Nc1cccc(C2CCN(CCCc3c(-c4cccc(Cl)c4)n(-c4ccccc4)c4ccccc34)CC2)c1 [Example 725] | 152 nM
63 | COc1cccc2c(CCCN3CCC(c4cccc(NC(=O)C(C)C)c4)CC3)c[nH]c12 [Example 418] | 51.6 nM
64 | CC(C)C(=O)Nc1cccc(C2CCN(CCCC(=O)c3ccc(C(C)(C)C)cc3)CC2)c1 [Example 946] | 337 nM
65 | CC(C)C(=O)Nc1cccc(C2CCN(CCCCC(O)c3ccc(Cl)cc3)CC2)c1 (centres unmarked) [Example 819] | 80.2 nM
66 | Cc1ccc2[nH]c(-c3ccccc3F)c(CCCN3CCC(c4cccc(NC(=O)C(C)C)c4)CC3)c2c1 [Example 698] | 3 nM
67 | CC(C)C(=O)Nc1cccc(C2CCN(CCCCC(=O)c3ccccc3I)CC2)c1 [Example 668] | 25.8 nM
68 | CCC(=O)Nc1cccc(C2CCN(CCCC(=O)c3ccc(C(C)C)cc3)CC2)c1 [Example 540] | 172 nM
69 | CC(C)C(=O)Nc1cccc(C2CCN(CCCCCCNC(=O)c3cnn(-c4ccc([N+](=O)[O-])cc4)c3C(F)(F)F)CC2)c1 [Example 624] | 47.8 nM
70 | COC(=O)c1ccc2c(CN3CCC(c4cccc(NC(=O)C(C)C)c4)CC3)cn(-c3ccccc3)c2c1 [Example 506, METHYL 3-({4-[3-(ISOBUTYRYLAMINO)PHENYL]-1-PIPERIDINYL}METHYL)-1-PHENYL-1H-INDOLE-6-CARBOXYLATE] | 2.5 nM
71 | CC(C)C(=O)Nc1cccc(C2CCN(Cc3c[nH]c4cc([N+](=O)[O-])ccc34)CC2)c1 [Example 507] | 57.9 nM
